Experimental data taken from patent US20040097411A1, “Method of treating left ventricular dysfunction” (Allegheny-Singer Research Institute, priority 2002, published 2004).
Where two headings read alike, the source gives them in different places.

Legend:
[1] = tested on: conscious, chronically instrumented dogs; assay: Acute graded infusion, hemodynamic effects in conscious chronically instrumented dogs (normal and advanced dilated cardiomyopathy); assay type: in vivo, dog
Description: FIGS. 2a-2d show the dose response to rGLP-1 in normal conscious dogs and conscious dogs with advanced DCM compared to the response to the sympathomimetic, dobutamine.
FIG. 1 illustrates characteristic instrumentation of conscious, chronically instrumented dogs studied in the laboratory. Under sterile surgical technique, the animals are instrumented as indicated and allowed to recover fully from their surgery. At the time, they are taught to lie quietly on the experimental table before study. To determine if acute GLP-1 (7-36 amide) infusion is associated with hemodynamic effects in conscious chronically instrumented dogs, graded infusions for ten minutes at doses of 1.25, 2.5, 5, 10 and 20 pmol/kg/min in six normal dogs and in six dogs with advanced dilated cardiomyopathy were studied. The response of the graded infusion to the classic iontopic agent, Dobutamine, (2.5, 5, 7.5, 10 and 15μ/kg/min.) was compared. […] Nikolaidis, L A, Hentosz, T, Doverspike, A, et al., “Catecholamine stimulation is associated with impaired myocardial O2 utilization in heart failure,” Cardiovas. Res., 2002;53:392-404, incorporated by reference herein.

[2] = tested on: adults presenting with severe acute myocardial infarction; assay: 72 hour continuous intravenous infusion in adults with severe acute myocardial infarction; assay type: in vivo, human
Description: The effects of continuous intravenous infusion of GLP-1 (1.5 pmol/kg/min) intravenously for 72 hours was studied in ten adults presenting with severe acute myocardial infarction. These were compared to eleven adults with similar large myocardial infarction (LVEF<35%) all of whom underwent percutaneous coronary intervention and subsequently were treated for 72 hours thereafter.

[3] = cited from earlier work; for plasma insulin levels: hyperglycemia (10.4 mmol/l, 187 mg/dl), GIP 2.0, GLP-1 1.5 pmol·kg−1·min−1; for insulinotropic action: normal subjects during euglycemia
rat cardiomyocytes = settings: in vitro; cited from earlier work
[4] = tested on: conscious dogs with advanced DCM; assay: Myocardial substrate uptake and metabolic parameters in dogs with advanced DCM (Table 1); assay type: in vivo, dog; settings: for Glucose myocardial uptake / Lactate myocardial uptake / NE (transmyocardial norepinephrine uptake) / NEFA myocardial uptake / Insulin/Glucagon: GLP-1 group; for Insulin/Glucagon: insulin pmol/L to glucagon pg/ml
Description: (§1) A 48 hour continuous intravenous infusion of GLP-1 (7-36 amide), (1.5 pmol/kg/min) in five normal dogs to determine the hemodynamic effect of chronic infusion in the absence of dilated cardiomyopathy was conducted. […] FIGS. 3-5 illustrates the effects of GLP-1 (7-36 amide) infusion (1.5 pmol/kg/min) intravenously for 48 hours in 20 conscious, chronically instrumented animals with advanced heart failure. These effects have been compared to similarly instrumented animals with advanced heart failure that received a control saline infusion of equal volume ([…]) illustrate the hemodynamic effects of chronic GLP-1 infusion in advanced DCM. GLP-1 (7-36 amide) infusion was associated with a restoration of left ventricular pressure, improvement in contractility, improvement in cardiac output, and reduction in heart rate and LVEDP. […] GLP-1 was associated with restoration of endothelial dependent vaso dilatation response to acetylcholine (FIG. 7). […] GLP-1 had […] increased plasma insulin levels in the setting of euglycemia.

normal dogs = assay: 48 hour continuous intravenous infusion in normal dogs, hemodynamic effect; assay type: in vivo, dog; settings: 1.5 pmol/kg/min i.v. 48 hour
Description: as §1

[5] = tested on: conscious dogs with advanced DCM; assay: 48 hour intravenous infusion in conscious dogs with advanced heart failure (DCM): hemodynamics, sympathetic activity, coronary vasodilation; assay type: in vivo, dog
Description: FIGS. 3a-3d show the effects of r GLP-1 on LV systolic pressure, LV end diastolic pressure, LV dP/dt, and heart rate in conscious dogs with advanced DCM compared to saline control.
FIGS. 4a-4d show the effects of rGLP-1 on cardiac output, stroke volume, LV ejection fraction, systemic vascular resistance in conscious dogs with advanced DCM compared to saline control.
FIGS. 5a and 5b show the effects of rGLP-1 on stroke work and LV external efficiency in conscious dogs with advanced DCM compared to saline control.
FIGS. 6a and 6b show the effects of rGLP-1 on transmyocardial norepinephrine uptake as a reflection of sympathetic drive to the myocardium in conscious dogs with advanced DCM compared to saline controls.
FIGS. 7a and 7b show the effects of rGLP-1 on endothelial dependent coronary vasodilation in conscious dogs. Advanced DCM was associated with impaired coronary flow responses to acetylcholine. These responses were restored following 48-hour infusion of rGLP-1. The response to the non-endothelial dependent vasodilator, nitroglycerine was unaffected.
as §1

restrained rats = settings: rat, in vivo, sc; cited from earlier work
[6] = when GIP is administered; cited from earlier work
[7] = hyperglycemia-only control ~280
[8] = graded infusions for ten minutes, 1.25-20 pmol/kg/min, normal dogs and dogs with advanced dilated cardiomyopathy
[9] = Baseline (before CHF and infusion)
[10] = advanced DCM, vs saline controls
[11] = 1.5 pmol/kg/min i.v. 48 hours, advanced heart failure, vs saline
[12] = 48-hour infusion, advanced DCM, FIG. 7

For CC(CCc1ccc(O)cc1)NCCc1ccc(O)c(O)c1 (stereo not drawn) [Dobutamine, reference compound], the “hemodynamic effects of graded infusion” value ([1]; dogs in heart failure) was “de-sensitized effects” and the “hemodynamic effects of graded infusion” value ([1]; normal dogs) was “predictable effects”.
For GLP-1 (7-36 amide), the left ventricular hemodynamics ([2]; 1.5 pmol/kg/min i.v. 72 hours after PCI, vs standard care, FIG. 8) is given as “overall improvement”, the left ventricular function ([2]; patients with large myocardial infarctions, 1.5 pmol/kg/min i.v. 72 hours) is given as “improvement” and the plasma insulin levels ([3]; hyperglycemia-only control 47) is given as ~333 μU/ml. For the same compound, the plasma insulin levels [3, 7] was ~2000 pmol/L, the incretin potency comparison ([3]; insulinotropic action during hyperglycemia) was “more potent than GIP” and the insulinotropic action [3] was “insulinotropic”. For the same compound, the cAMP (rat cardiomyocytes) was “increases”, the myocyte contractility (rat cardiomyocytes) was “no effect” and the cardiac output [1, 8] was “no significant, dose related effects”. For the same compound, the heart rate [1, 8] was “no significant, dose related effects”, the “left ventricular dP/dt” value [1, 8] was “no significant, dose related effects” and the left ventricular pressure [1, 8] was “no significant, dose related effects”. For the same compound, the “acute hemodynamic effects (dose response)” value ([1]; normal conscious dogs and conscious dogs with advanced DCM, FIGS. 2a-2d) was “no acute hemodynamic effects”, the Glucose myocardial uptake ([4]; 24 hrs of infusion) was 8.72 ± 1.05 µmol/min and the Lactate myocardial uptake ([4]; 24 hrs of infusion) was 3.61 ± 0.62 µmol/min. The “NE (transmyocardial norepinephrine uptake)” value ([4]; 24 hrs of infusion) was 26.3 ± 3.1 pmol/min, the NEFA myocardial uptake ([4]; 24 hrs of infusion) was 4.53 ± 0.58 µmol/min and the Glucose myocardial uptake ([4]; 48 hrs of infusion) was 7.00 ± 0.94 µmol/min. For the same compound, the Lactate myocardial uptake ([4]; 48 hrs of infusion) was 4.04 ± 0.74 µmol/min, the “NE (transmyocardial norepinephrine uptake)” value ([4]; 48 hrs of infusion) was 30.5 ± 4.9 pmol/min and the NEFA myocardial uptake ([4]; 48 hrs of infusion) was 5.16 ± 0.73 µmol/min. The Insulin/Glucagon ([4]; 48 hrs of infusion) was 3.12 ± 0.24, the Glucose myocardial uptake [4, 9] was 6.67 ± 1.22 µmol/min and the Lactate myocardial uptake [4, 9] was 4.78 ± 1.04 µmol/min. The “NE (transmyocardial norepinephrine uptake)” value [4, 9] was 30.9 ± 4.8 pmol/min, the NEFA myocardial uptake [4, 9] was 5.23 ± 0.83 µmol/min and the Insulin/Glucagon ([4]; Baseline) was 1.36 ± 0.21. For the same compound, the Glucose myocardial uptake ([4]; CHF (before infusion)) was 3.44 ± 0.81 µmol/min, the Lactate myocardial uptake ([4]; CHF (before infusion)) was 2.64 ± 0.91 µmol/min and the “NE (transmyocardial norepinephrine uptake)” value ([4]; CHF (before infusion)) was 18.7 ± 3.6 pmol/min. The NEFA myocardial uptake ([4]; CHF (before infusion)) was 3.17 ± 0.61 µmol/min, the Insulin/Glucagon ([4]; CHF (before infusion)) was 1.79 ± 0.29 and the plasma glucagon levels ([4]; advanced DCM) was “effective in reducing”. The myocardial glucose uptake [4, 10] was “enhanced”, the “ratio of insulin (pmol/L) to glucagon (pg/ml)” value [4, 10] was “significant increase” and the plasma insulin levels ([4]; setting of euglycemia) was “little effect”. For the same compound, the “hemodynamic effects of chronic infusion” value (normal dogs) was “no significant hemodynamic effects”, the LVEDP [5, 11] was “reduction” and the cardiac output [5, 11] was “improvement”. For the same compound, the contractility [5, 11] was “improvement”, the heart rate [5, 11] was “reduction” and the left ventricular pressure [5, 11] was “restoration”. For the same compound, the “endothelial dependent vasodilatation (coronary flow) response to acetylcholine” value [5, 12] was “restoration”, the “response to the non-endothelial dependent vasodilator nitroglycerine” value [5, 12] was “unaffected” and the “endothelial dependent vasodilatation (coronary flow) response to acetylcholine” value ([5]; 48-hour infusion, advanced DCM, FIG. 7, listed as rGLP-1) was “restored”. For the same compound, the myocardial sympathetic activity ([5]; infusion compared to saline, FIG. 6) was “suppression”.
For exendin-4 [excendin 4], the blood pressure (restrained rats) is given as “hypertension” and the heart rate (restrained rats) is given as “tachycardia”.
For “glucose-dependent insulinotropic polypeptide [GIP]”, the plasma insulin levels ([3]; hyperglycemia-only control 47) is listed as ~150 μU/ml, the plasma insulin levels [3, 7] is listed as ~900 pmol/L and the insulinotropic action [3] is listed as “not”. The “increase of B-cell sensitivity to second-generation sulfonylurea” value [6] was 2 fold.
